Source: patent US6342499B1, “Parasitic and saprophagous mite control in beneficial insects” (BASF Aktiengesellschaft, priority 1998, dated 2002)

What was measured:
Format in all cases: in vivo
[1] = system: honeybees (Apis mellifera); assay: Example 4: METI, topical treatment of honeybees from hives 70% infested with Varroa; bee mortality; details: 5 days at 31° C.
Method: (§1) Honeybees (Apis mellifera) taken from hives which are 70% infested with Varroa jacobsoni are chilled to immobilize the bees. A 1 μl droplet of an acetone solution of test compound is applied to the dorsal abdomen of each bee; control bees receive a 1 μl droplet of acetone. A total of 50-52 bees are treated for each dose rate tested. The treated bees are placed in an incubator at 31° C. in the dark and fed 50% sugar water ad libitum for 5 days. After incubation, the bees are examined for mortality and mite infestation.

[2] = system: Varroa jacobsoni; assay: Example 4: METI, topical treatment of honeybees from hives 70% infested with Varroa; parasite mortality; details: 5 days at 31° C.
Method: as §1

[3] = system: Proctolaelaps sp. mites (Proct); assay: Example 5: treated paper strips in mite-infested Drosophila culture vials; Proctolaelaps mortality; details: treated paper strip, after 15 days, percent of expected progeny vs untreated control
Method: (§2) Paper towel strips (2×7 cm) are dipped into an acetone solution of test compound and allowed to dry. Control paper towel strips are dipped into acetone and allowed to dry. Treated strips are placed in 2.5×9.5 cm culture vials containing a standard cornmeal-molasses-agar diet, such that the strips are inserted about 1 cm into the diet. Five pairs of heavily infested, newly emerged Drosophila melanogaster are placed into the test vials and incubated at 25° C. After 5 days, the adult flies are evaluated for % mortality and are removed rom each test vial. After 15 days, the mites [Proctoloaelaps sp.(Proct) and Histiostoma sp.(Hist)] and insect larva/pupa are evaluated for mortality and recorded as a percent of expected progeny as determined by the untreated control. At 14 days approximately 200-500 Histiostoma sp. mites (Hist) and approximately 50 Proctolaelaps sp. mites (Proct) are present in the untreated controls.

[4] = system: Drosophila melanogaster; assay: Example 5: treated paper strips in mite-infested Drosophila culture vials; fly mortality; details: treated paper strip; for % Mortality Drosophila Adults: after 5 days at 25° C.; for % Mortality Drosophila larvae: after 15 days, percent of expected progeny vs untreated control
Method: as §2

[5] = system: Acarapis woodi (trachea mites); assay: Example 3: tracheal mites walked across glass slides dipped in test compound; time to 100% mortality; details: slides dipped in 500 ppm acetone solution
Method: In this evaluation, honeybees (Apis mellifera) which are infested with Acarapis woodi (trachea mites) are dissected to remove the infested tracheae. Glass microscope slides are dipped into acetone solutions of test compound (500 ppm) and the acetone is allowed to evaporate. Infested tracheae are placed directly on the treated slides. The mites are removed from the tracheae by dissection and forced to walk across the treated area. The elapsed time is recorded for 100% mortality, i.e. no movement is observed upon agitation.

[6] = system: Histiostoma sp. mites (Hist); assay: Example 5: treated paper strips in mite-infested Drosophila culture vials; Histiostoma mortality; details: treated paper strip, after 15 days, percent of expected progeny vs untreated control
Method: as §2

CC(C)(C)c1ccc(CCOc2ncnc3ccccc23)cc1 [Fenazaquin, fenazaquin]
% Mortality Bees ([1]; dose 0.012 μg/bee): 18% | % Mortality Bees ([1]; dose 0.12 μg/bee): 14% | % Mortality Bees ([1]; dose 1.2 μg/bee): 18% | % Mortality Parasites ([2]; dose 0.012 μg/bee): 19% | % Mortality Parasites ([2]; dose 0.12 μg/bee): 27% | % Mortality Parasites ([2]; dose 1.2 μg/bee): 87%

CC(C)(C)c1ccc(CSc2cnn(C(C)(C)C)c(=O)c2Cl)cc1 [Pyridaben, pyridaben]
% Mortality Bees ([1]; dose 0.001 μg/bee): 12% | % Mortality Bees ([1]; dose 0.01 μg/bee): 10% | % Mortality Bees ([1]; dose 0.1 μg/bee): 20% | % Mortality Parasites ([2]; dose 0.001 μg/bee): 14% | % Mortality Parasites ([2]; dose 0.01 μg/bee): 0% | % Mortality Parasites ([2]; dose 0.1 μg/bee): 100%

CCCCCCCCCCCCC1=C(OC(C)=O)C(=O)c2ccccc2C1=O [Acequinocyl, acequinocyl]
% Mortality Bees ([1]; dose 0.1 μg/bee): 15% | % Mortality Bees ([1]; dose 1.0 μg/bee): 10% | % Mortality Bees ([1]; dose 10.0 μg/bee): 42% | % Mortality Parasites ([2]; dose 0.1 μg/bee): 12% | % Mortality Parasites ([2]; dose 1.0 μg/bee): 0% | % Mortality Parasites ([2]; dose 10.0 μg/bee): 83%

Cc1nn(C)c(Oc2ccccc2)c1C=NOCc1ccc(C(=O)OC(C)(C)C)cc1 [Fenpyroximate, fenpyroximate]
% Mortality Bees ([1]; dose 0.003 μg/bee): 13% | % Mortality Bees ([1]; dose 0.03 μg/bee): 10% | % Mortality Bees ([1]; dose 0.3 μg/bee): 24% | % Mortality Parasites ([2]; dose 0.003 μg/bee): 7% | % Mortality Parasites ([2]; dose 0.03 μg/bee): 30% | % Mortality Parasites ([2]; dose 0.3 μg/bee): 100%

Fc1ccc(Oc2cc(Oc3ccc(Cl)c(C(F)(F)F)c3)ncn2)cc1C(F)(F)F [C]
% Mortality Mites Proct ([3]; dose 10 ppm): 40% | % Mortality Mites Proct ([3]; dose 50 ppm): 100% | % Mortality Mites Proct ([3]; dose 100 ppm): 100% | % Mortality Drosophila Adults ([4]; dose 10 ppm): 15% | % Mortality Drosophila larvae ([4]; dose 10 ppm): 0% | % Mortality Drosophila Adults ([4]; dose 50 ppm): 20% | % Mortality Drosophila larvae ([4]; dose 50 ppm): 53% | % Mortality Drosophila Adults ([4]; dose 100 ppm): 100% | % Mortality Drosophila larvae ([4]; dose 100 ppm): 73% | Time required in minutes to achieve 100% mortality ([5]; Rep. 1): 16 min | Time required in minutes to achieve 100% mortality ([5]; Rep. 2): 16 min | Time required in minutes to achieve 100% mortality ([5]; Rep. 3): 15 min | % Mortality Mites Hist ([6]; dose 10 ppm): 90% | % Mortality Mites Hist ([6]; dose 50 ppm): 100% | % Mortality Mites Hist ([6]; dose 100 ppm): 100%
